From patent US20170073324A1, “Bifidenone Compositions and Methods of Use” (Sequoia Sciences, Inc., priority 2015, published 2017)
Like-named read-outs stand apart in the source and are kept apart here.

Experiments:
[1] = tested on: NCI-H460 (large cell lung carcinoma) cells; assay: Antiproliferation assay (CELLTITER 96 AQueous, 72 h); format: cell-based; conditions: Homo sapiens
Method: Bifidenone was tested for its ability to inhibit the proliferation of human cancer cells in vitro as described in the following paragraph. IC50 is defined as the concentration of compound necessary to achieve 50% of the maximum growth inhibition.
For the antiproliferation assay, NCI-H460 (large cell lung carcinoma) or M14 (amelanotic melanoma) cells were grown in RPMI-1640 with 10% FBS supplemented with L-glutamine and HEPES. Cells were seeded into 96-well plates at 5×10^2 to 5×10^4 cells/well and allowed to adhere overnight; the medium was then removed. A stock solution of test compound in DMSO was diluted in medium to generate a series of working solutions. Aliquots (100 μL) of the working solutions were then added to the appropriate test wells to expose cells to the final concentrations of compound in a total volume of 100 μL. Seven different concentrations were tested, with 2-5 wells per concentration. Camptothecin was used as a positive control; wells containing vehicle without compound were used as negative controls. Plates were kept for 72 h in a 37° C., 5% CO2 incubator. After incubation, viable cells were detected with the CELLTITER 96 AQueous Non-Radioactive Cell Proliferation Assay (Promega), and IC50 values were determined using GraphPad Prism 5 software.

tubulin = assay: In vitro tubulin polymerization assay; format: biochemical; conditions: absorbance readout, FIG. 3
Method: To test the hypothesis that bifidenone inhibits cell proliferation by interfering with microtubule dynamics, it was tested in an in vitro tubulin polymerization assay. FIG. 3 illustrates inhibition of tubulin polymerization by bifidenone. Increased absorbance corresponds to increased polymerization.

[2] = tested on: NCI-H460 lung cancer cells; assay: Cell cycle analysis (propidium iodide, flow cytometry); format: cell-based, human; conditions: NCI-H460, 1, 2, or 3× the IC50 for 6, 18, or 24 h
Method: Antitubulin agents typically interfere with mitosis by disrupting the microtubule dynamics necessary for cell division. […] Cells were then treated with propidium iodide and analyzed using flow cytometry.

NCI-H460 cells = assay: Western blot analysis of G2/M markers; format: cell-based, human; conditions: NCI-H460, 21 h
Method: Nocodazole is known to cause G2/M arrest. Cell lysates were analyzed by western blot using the antibodies indicated on the left. Individual protein bands are designated on the right.

[3] = tested on: caspases 3 and 7 in NCI-H460 lung cancer cells; assay: Caspase 3/7 luminescent apoptosis assay; format: cell-based, human; conditions: NCI-H460, varying concentrations
Method: FIG. 6 illustrates Caspase assay. Enzyme activity of caspases 3 and 7 was determined using a luminescent assay. NCI-H460 lung cancer cells were treated with varying concentrations of bifidenone or the known antitubulin agents paclitaxel or colchicine. The readout of relative light units is proportional to total caspase 3 and 7 activity.

PARP and caspase-7 = assay: Western blot of PARP and caspase-7 cleavage; format: cell-based; conditions: FIG. 7
[4] = tested on: colchicine binding site of tubulin; assay: Ultrafiltration-based tubulin competition assay; conditions: free ligand by LC/MS
Text: (§1) In order to determine the binding site of bifidenone on tubulin, a published ultrafiltration-based competition assay was used. In this assay, tubulin is allowed to bind with a known ligand, and then free ligand is separated by ultrafiltration and analyzed by LC/MS. In the presence of a competitor, the concentration of free ligand increases. […] FIG. 8 illustrates tubulin competition assay. Each graph depicts the amount of unbound compound detected in the presence of varying concentrations of competitors. Known competitors were used as positive controls: podophyllotoxin for the colchicine site (left), vinblastine for the vincristine site (center), and docetaxel for the paclitaxel site (right). Amounts of free compound are expressed as percentages normalized to the amount of free compound detected in the presence of 100 μM known competitor.

[5] = tested on: paclitaxel binding site of tubulin; assay: Ultrafiltration-based tubulin competition assay; conditions: free ligand by LC/MS
Text: as §1

[6] = Mouse plasma concentration after IP injection; format: in vivo, mice
Method: The bioavailabilities of certain compounds were examined in mice. Administration of the compounds was performed by intraperitoneal (IP) injection using a vehicle as known to those skilled in the art. To measure compound concentrations in plasma, blood is collected by cardiac puncture at a specified time after dosing. It is then centrifuged in a plasma separator tube with NaEDTA/NaF as the anticoagulant, and the resulting plasma is stored at −80° C. For analysis, an internal standard is added to a 200 μL aliquot of plasma, and the aliquot is extracted with ethyl acetate. The ethyl acetate extract is analyzed by LC/MS and quantitated using a standard curve prepared by adding known amounts of test compound and internal standard to 200 μL aliquots of blank mouse plasma.
Many vehicles can be used to examine bioavailability. Prior to administration, each vehicle was optimized based on compound solubility according to the formulation research conducted by Uckun et at (Uckun, F. M., Tibbles, H., Erbeck, D., Venkatachalam, T. K., Qazi, S., 2007). In vivo pharmacokinetics and toxicity of a novel hydrophilic oral formulation of the potent non-nucleoside reverse transcriptase inhibitor compound N′-[2-(2-thiophene)ethyl]-N′-[2-(5-bromopyridyl)]-thiourea (HI-443). Arzneimittelforschung 57, 218-226.). […] The concentration of PEG400 is modulated depending upon solubility of the compounds and the amount of water phase added.
With larger injections (75-100 mg/kg), plasma concentrations were >4 times the IC50 at 6 h.

[7] = Epimerization by TFA in HPLC solvents; format: physicochemical; conditions: TFA (0.05%) in HPLC solvents
Method: To obtain additional bifidenone for antiproliferation assays, the remaining material from the Beilschmiedia specimen was fractionated. […] Consequently, future isolations were performed without TFA in the semipreparative steps. Ultimately, 79 μg of bifidenone was isolated.

IC50 ([1]; NCI-H460, 72 h, read-out: IC50 against NCI-H460): 360 nM | IC50 ([1]; NCI-H460, as restated in Example VII, read-out: IC50 against NCI-H460 human lung cancer cells): 360 nM | competition for the colchicine binding site [4]: competes for the colchicine binding site | competition for the paclitaxel binding site [5]: weakly for the paclitaxel binding site | change of plasma concentration with vehicle ([6]; initial formulation diluted with up to 20% water): not diminished | concentration at 1 h ([6]; mouse, plasma, 1 h post-injection, 40 mg/kg IP, vehicle 40% propylene glycol, 20% TWEEN-20, 20% PEG400, 20% ethanol): > 360 nM | change of plasma levels with vehicle ([6]; propylene glycol decreased to 25%): diminished | change of plasma levels with vehicle ([6]; propylene glycol increased to 45% and TWEEN-20 decreased to <3%): increased or were not diminished | stability to TFA [7]: prone to epimerization
SMILES: C=CC[C@H]1C[C@]2([C@@H](C)Cc3ccc(OC)c(OC)c3)OCOC2=CC1=O [bifidenone, (6S,7aR)-6-Allyl-7a-((S)-1-(3,4-dimethoxyphenyl)propan-2-yl)-7,7a-dihydrobenzo[d][1,3]dioxol-5(6H)-one]
inhibition of tubulin polymerization (tubulin): inhibits tubulin polymerization in a dose-dependent manner | cell cycle effect [2]: causes arrest in the G2/M phase of the cell cycle | protein expression and phosphorylation patterns (Histone H3 Ser10, Myt1, Aurora A/B/C, cdc2 Tyr15) (NCI-H460 cells): consistent with G2/M arrest | apoptosis by enzymatic activity of caspases 3 and 7 [3]: undergo apoptosis | cleavage of caspase-7 and PARP (PARP and caspase-7): cleavage of caspase-7 and PARP occurred
